Experiments:
human meprin α = target: T1, human meprin α (Homo sapiens, UniProt Q16819); assay type: biochemical; conditions: for SF: selectivity factor (Ki(app) meprin β/Ki(app) meprin α): meprin α over meprin β; for Ki: Ki(app) Meprin α, geometric mean of three independent experiments with standard deviation factor
T1 sequence (Q16819 66-746): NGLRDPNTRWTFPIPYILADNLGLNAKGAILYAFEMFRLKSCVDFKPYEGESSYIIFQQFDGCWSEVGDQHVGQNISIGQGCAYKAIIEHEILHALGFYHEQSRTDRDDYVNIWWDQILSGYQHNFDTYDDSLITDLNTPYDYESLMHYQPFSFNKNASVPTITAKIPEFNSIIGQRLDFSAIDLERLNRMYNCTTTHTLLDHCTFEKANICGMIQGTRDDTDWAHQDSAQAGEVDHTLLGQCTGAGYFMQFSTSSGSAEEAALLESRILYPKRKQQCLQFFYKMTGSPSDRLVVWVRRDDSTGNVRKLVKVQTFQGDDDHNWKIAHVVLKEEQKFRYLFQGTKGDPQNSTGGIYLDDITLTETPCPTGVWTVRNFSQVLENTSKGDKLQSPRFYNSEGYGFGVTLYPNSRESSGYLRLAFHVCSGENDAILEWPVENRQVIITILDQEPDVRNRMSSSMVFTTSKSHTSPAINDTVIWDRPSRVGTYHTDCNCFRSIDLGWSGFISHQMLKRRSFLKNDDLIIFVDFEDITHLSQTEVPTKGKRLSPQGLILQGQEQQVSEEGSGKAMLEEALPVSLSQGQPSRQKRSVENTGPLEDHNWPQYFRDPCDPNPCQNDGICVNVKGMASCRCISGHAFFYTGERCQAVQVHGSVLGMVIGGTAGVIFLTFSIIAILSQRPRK

MMP13 = MMP13 (Homo sapiens, UniProt P45452); experiment: Off-target metalloprotease inhibition, MMP13; assay type: biochemical; conditions: read-out: Residual activity MMP13
ADAM17 = ADAM17 (Homo sapiens, UniProt P78536); experiment: Off-target metalloprotease inhibition, ADAM17; assay type: biochemical; conditions: read-out: Residual activity ADAM17
MMP2 = target: T2, MMP2 (Homo sapiens, UniProt P08253); experiment: Off-target metalloprotease inhibition, MMP2; assay type: biochemical; conditions: read-out: Residual activity MMP2
T2 sequence (P08253 110-660): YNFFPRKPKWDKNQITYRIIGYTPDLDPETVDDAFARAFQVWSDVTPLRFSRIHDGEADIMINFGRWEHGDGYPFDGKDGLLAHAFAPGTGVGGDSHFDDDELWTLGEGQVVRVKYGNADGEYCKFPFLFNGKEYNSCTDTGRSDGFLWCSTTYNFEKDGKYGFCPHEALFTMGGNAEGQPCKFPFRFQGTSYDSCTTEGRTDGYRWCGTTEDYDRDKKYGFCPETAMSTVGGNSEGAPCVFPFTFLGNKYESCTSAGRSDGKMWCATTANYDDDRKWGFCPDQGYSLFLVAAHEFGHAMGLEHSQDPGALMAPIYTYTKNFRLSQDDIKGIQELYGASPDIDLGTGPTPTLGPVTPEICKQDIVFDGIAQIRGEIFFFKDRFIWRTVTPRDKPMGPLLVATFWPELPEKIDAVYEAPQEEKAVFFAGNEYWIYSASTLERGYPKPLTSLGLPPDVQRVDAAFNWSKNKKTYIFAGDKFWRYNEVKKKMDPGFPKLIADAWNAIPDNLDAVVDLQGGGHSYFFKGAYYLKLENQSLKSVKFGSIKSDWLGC

ADAM10 = target: T3, ADAM10 (Homo sapiens, UniProt O14672); experiment: Off-target metalloprotease inhibition, ADAM10; assay type: biochemical; conditions: read-out: Residual activity ADAM10
T3 sequence (O14672 214-748): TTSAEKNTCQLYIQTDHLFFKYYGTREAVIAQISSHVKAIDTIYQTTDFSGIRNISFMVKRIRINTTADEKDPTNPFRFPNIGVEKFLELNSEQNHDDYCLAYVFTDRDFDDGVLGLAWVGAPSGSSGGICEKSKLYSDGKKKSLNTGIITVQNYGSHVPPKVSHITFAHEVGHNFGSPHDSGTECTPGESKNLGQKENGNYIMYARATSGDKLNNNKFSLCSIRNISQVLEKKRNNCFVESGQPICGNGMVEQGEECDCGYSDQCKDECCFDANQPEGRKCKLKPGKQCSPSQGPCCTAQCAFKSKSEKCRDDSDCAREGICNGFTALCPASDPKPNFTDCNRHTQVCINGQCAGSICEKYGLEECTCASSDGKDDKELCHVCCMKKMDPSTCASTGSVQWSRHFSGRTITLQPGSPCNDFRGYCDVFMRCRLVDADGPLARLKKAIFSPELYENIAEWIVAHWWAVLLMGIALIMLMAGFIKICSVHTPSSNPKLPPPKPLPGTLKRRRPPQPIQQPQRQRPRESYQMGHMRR

Cell viability assay [1] = assay type: cell-based; conditions: human, Hep-G2 cells
MMP9 = MMP9 (Homo sapiens, UniProt P14780); experiment: Off-target metalloprotease inhibition, MMP9; assay type: biochemical; conditions: read-out: Residual activity MMP9
human meprin β = target: T4, human meprin β (Homo sapiens, UniProt Q16820); assay type: biochemical; conditions: for Ki: Ki(app) Meprin β, geometric mean of three independent experiments with standard deviation factor
T4 sequence (Q16820 62-701): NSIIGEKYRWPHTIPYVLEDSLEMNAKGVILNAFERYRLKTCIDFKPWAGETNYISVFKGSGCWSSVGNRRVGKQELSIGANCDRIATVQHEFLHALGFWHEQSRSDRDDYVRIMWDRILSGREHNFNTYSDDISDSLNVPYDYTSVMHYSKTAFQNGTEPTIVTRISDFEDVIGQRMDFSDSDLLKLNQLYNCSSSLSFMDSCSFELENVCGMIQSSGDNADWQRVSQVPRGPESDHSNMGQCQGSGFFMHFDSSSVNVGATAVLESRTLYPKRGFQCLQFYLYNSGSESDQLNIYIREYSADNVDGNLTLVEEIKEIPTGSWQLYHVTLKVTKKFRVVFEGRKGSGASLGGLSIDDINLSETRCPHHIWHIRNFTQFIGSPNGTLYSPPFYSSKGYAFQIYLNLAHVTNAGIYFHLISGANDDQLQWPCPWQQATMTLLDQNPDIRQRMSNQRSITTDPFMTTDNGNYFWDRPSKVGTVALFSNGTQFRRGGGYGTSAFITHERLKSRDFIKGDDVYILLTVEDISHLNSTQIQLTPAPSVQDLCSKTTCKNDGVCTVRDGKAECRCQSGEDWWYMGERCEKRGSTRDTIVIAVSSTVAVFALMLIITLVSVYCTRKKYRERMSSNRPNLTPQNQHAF

Cell viability assay [2] = assay type: cell-based; conditions: human, SH-SY5Y cells
MMPs and ADAMs = experiment: Off-target metalloprotease panel; assay type: biochemical, human; conditions: 10 µM inhibitor concentration

Chain of MMP9 (P14780 107-707 limits assumed): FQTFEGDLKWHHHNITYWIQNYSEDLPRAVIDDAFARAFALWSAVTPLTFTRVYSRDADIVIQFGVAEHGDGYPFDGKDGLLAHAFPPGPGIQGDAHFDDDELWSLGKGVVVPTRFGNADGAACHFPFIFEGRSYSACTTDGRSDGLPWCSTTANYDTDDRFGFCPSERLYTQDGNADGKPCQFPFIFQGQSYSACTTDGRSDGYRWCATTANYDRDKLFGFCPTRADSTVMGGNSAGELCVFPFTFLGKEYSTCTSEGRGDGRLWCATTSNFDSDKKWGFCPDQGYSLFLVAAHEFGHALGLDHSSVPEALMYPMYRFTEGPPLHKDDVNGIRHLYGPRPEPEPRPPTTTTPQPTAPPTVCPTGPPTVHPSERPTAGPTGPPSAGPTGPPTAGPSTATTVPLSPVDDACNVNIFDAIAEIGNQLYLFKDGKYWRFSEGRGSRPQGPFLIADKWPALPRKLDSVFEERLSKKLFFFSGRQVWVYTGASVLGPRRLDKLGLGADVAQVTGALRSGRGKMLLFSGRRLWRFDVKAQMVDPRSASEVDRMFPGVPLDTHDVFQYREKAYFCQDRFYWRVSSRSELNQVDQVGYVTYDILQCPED
Chain of ADAM17 (P78536 215-824): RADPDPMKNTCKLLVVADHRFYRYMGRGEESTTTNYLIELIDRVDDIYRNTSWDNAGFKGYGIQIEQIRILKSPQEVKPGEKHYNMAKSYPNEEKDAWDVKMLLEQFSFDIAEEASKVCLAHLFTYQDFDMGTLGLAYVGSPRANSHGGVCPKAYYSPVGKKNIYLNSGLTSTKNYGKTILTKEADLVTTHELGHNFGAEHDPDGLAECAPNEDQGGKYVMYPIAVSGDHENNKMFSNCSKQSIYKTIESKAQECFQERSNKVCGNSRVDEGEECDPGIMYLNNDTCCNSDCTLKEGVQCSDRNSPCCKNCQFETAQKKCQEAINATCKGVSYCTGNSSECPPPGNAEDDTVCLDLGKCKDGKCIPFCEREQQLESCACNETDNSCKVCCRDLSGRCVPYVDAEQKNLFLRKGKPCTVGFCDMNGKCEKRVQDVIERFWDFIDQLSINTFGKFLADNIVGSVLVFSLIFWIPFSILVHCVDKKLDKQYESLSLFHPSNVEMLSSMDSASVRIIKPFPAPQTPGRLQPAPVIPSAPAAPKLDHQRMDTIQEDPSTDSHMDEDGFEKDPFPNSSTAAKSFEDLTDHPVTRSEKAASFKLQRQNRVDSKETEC

SF: selectivity factor (Ki(app) meprin β/Ki(app) meprin α) (human meprin α)	remaining activity at 10 µM (MMP13) [%]	remaining activity at 10 µM (ADAM17) [%]	remaining activity at 10 µM (MMP2) [%]	remaining activity at 10 µM (ADAM10) [%]	remaining activity at 10 µM (MMP9) [%]	Ki (human meprin β) [nM]	Ki (human meprin α) [nM]	fold improved activity against meprin α (human meprin α; compared to 21e) [fold]	fold increase in potency against meprin β (human meprin β; compared to 21e) [fold]	Compound	viability at 24 h, 30 µM (Cell viability assay [1]) [%]	viability at 24 h, 30 µM (Cell viability assay [2]) [%]	residual activities of the respective MMPs and ADAMs (MMPs and ADAMs)
116	84	72	69	85	70	9.3	–	–	–	O=C(Cc1c(-c2ccccc2)nn(Cc2ccc(Cl)c(O)c2F)c1-c1ccccc1)NO [21i, 2-[1-[(4-Chloro-2-fluoro-3-hydroxy-phenyl)methyl]-3,5-diphenyl-pyrazol-4-yl]ethane-hydroxamic acid]	107	79	–
35	83	84	89	92	83	10.6	0.3	3	30	O=C(Cc1c(-c2ccccc2)nn(Cc2cccc(C(=O)O)c2)c1-c1ccccc1)NO [21g, 3-[[4-[2-(Hydroxyamino)-2-oxo-ethyl]-3,5-diphenyl-pyrazol-1-yl]methyl]benzoic acid]	99	85	–
2	105	99	95	90	94	0.2	0.1	–	–	O=C(Cc1c(-c2cccc(C(=O)O)c2)n[nH]c1-c1cc(F)c(O)c(Cl)c1)NO [16j, 3-[5-(3-Chloro-5-fluoro-4-hydroxy-phenyl)-4-[2-(hydroxyamino)-2-oxo-ethyl]-1H-pyrazol-3-yl]benzoic acid]	98	110	above 90%

— PMC9870012 (Journal of Enzyme Inhibition and Medicinal Chemistry, 2023)
